Results published in patent US5561149A, “Use of certain imidazol carbazols in treating stress-related manic-depressive disorders” (priority 1986, dated 1996).
Where two headings read alike, the source gives them in different places.

Columns and labels:
[1] = test system: male OF-1 mice (social interactions and feeding); test: Competitive feeding, Study C; type: in vivo, mouse
Procedure: In this test 8 pairs of male OF-1 mice deprived of food for 6 hours are forced to compete over 6 minutes for a single food pellet. […]

[2] = test system: mice (approach-oriented behaviour); test: Approach-oriented behaviour in mice in stress-situations; type: in vivo, mouse; conditions: for approach-oriented social behaviours: food deprived mice under white light; for effect on promoting social interaction under stress related conditions: mouse, in vivo
Procedure: Trials have been carried out on the effects of the compounds of the invention on approach-oriented behaviour in mice. The compounds increase approach-oriented behaviour in stress-situations normally inhibitory to social responses. Thus situations involving unfamiliar surroundings, contact with foreign aggressive opponents, competition for food, were created under reversed lighting conditions whereby observations were performed during the darkphase. Under these conditions, untreated rodents exihibit high levels of flight, particularly depressive ambivalence and escape behaviour, but low levels of social behaviour involving approach activity.

[3] = test system: mice (stretched attend postures); conditions: H. P. Kasermann, Psychopharmacology 1986, 89, 31-37; cited from earlier work
[4] = test system: intruder mice (social behaviour); test: Intruder test, Study A; type: in vivo, mouse; conditions: 1 mg/kg p.o., 1 hour before the encounter
Procedure: A foreign male mouse (intruder), placed for 6 minutes, into the cage of an isolated male is attacked and responds with defensive escape patterns collectively known as "flight". Flight and associated defensive activities over-ride the intruder's tendency to approach the attacker so that much of the behaviour includes social forms of ambivalence.
Intruders receiving oral doses of benzodiazepines show less of these defensive activities and more approach-oriented behaviour (A. K. Dixon Triangle 1982, 21, 95-105; M. Krisak, Br. J. Pharmacol 1975, 55, 141-150), e.g. investigation, aggression and sexual activity.
The compounds of the invention are administered 1 hour before the encounter per-orally at from about 0.1 to about 10 mg/kg. Groups of 8 mice pairs are used. The frequency and duration of social and non-social behaviour of the mice were recorded using ethological techniques.

5-HT3 receptors [5] = conditions: rabbit vagus; P. Donatsch et al., Br.j. Pharmacol. 1984, 81,348; cited from earlier work
5-HT3 receptors [6] = conditions: guinea pig ileum; P. Donatsch et al., Br.j. Pharmacol. 1984, 81,348; cited from earlier work
[7] = Bioavailability and pharmacokinetic profile after nasal / oral administration; type: in vivo, mammals including rhesus monkeys and humans; conditions: plasma; ca. 5 to 10 minutes following nasal administration
Procedure: The bioavailability and pharmacokinetic profile of the compounds of the invention may be determined in conventional manner, e.g. in mammals including rhesus monkeys and humans. The concentrations of the compounds of the invention in the blood plasma after administration of from about 0.01 to about 10 mg/kg to each nostril, e.g. 7.5 mg in the case of compound E, locally to the nasal mucous membrane, e.g. as a spray, may be determined in conventional manner by e.g. radioimmunoassay or HPLC methods. The compounds of the invention are rapidly absorbed, e.g. over about 10 minutes.

[8] = 26 week toxicity study in the dog; conditions: in vivo, po, 26 weeks, read-out: no toxic effect bowel (dose), dog
Excerpt: (§1) Toxicity and Tolerability studies may be effected in conventional manner with the compounds of the invention to determine the upper dosage.
(§2) Toxicity studies may be effected for example in the rat and the dog over for example 26 weeks.

5-HT3 receptors [9] = conditions: rabbit heart; P. Donatsch et al., Br.j. Pharmacol. 1984, 81,348; cited from earlier work
healthy human volunteers = test: Tolerability in healthy human volunteers; type: in vivo; conditions: single doses
Excerpt: as §1

plasma corticosterone = test: Corticosterone levels (Endocrinological profile); type: in vivo, mouse; conditions: reduction at high, increase of basal levels at low doses
[10] = test system: intruder mice (approach-oriented social activities); test: Intruder test, Study B (large cage); type: in vivo, mouse; conditions: for escape behaviour: single compounds: 1 microgram/kg, in general about 0.01 to about 100 microgram/kg i.p.
Procedure: Study A was modified using a large cage (59×38.5×20 cm) which allowed greater freedom of movement so that elements of defense could be separated more clearly from the approach-oriented social activities. The compounds of the invention were given i.p. at doses from about 0.01 to about 100 microgram/kg 45 minutes before the encounter.
Indruders received the drug. […] In this test at a dose of 1 microgram/kg compound E promoted 8 elements of approach oriented social activities by about 40 per cent. […] Compound H at the same dose promoted 3 elements of approach-oriented social activities by about 40 per cent.

[11] = 26 week toxicity study in the rat; conditions: in vivo, po, 26 weeks, read-out: no toxic effect (dose), rat
Excerpt: as §1, §2

[12] = test system: mice (stretched attend postures); test: Stretched Attend Postures (SAP) (No conflict); type: in vivo, mouse; conditions: doses higher than 0.1 mg/kg
Procedure: Mice placed upon an unfamiliar elevated platform in a novel environment display characteristic stretched body postures called SAP's which signify amibivalence.
The compounds of the invention administered p.o. at a dose of from about 0.1 to about 10 mg/kg. 2 hours before the test reduce the duration of SAP when placed on the platform for 2 minutes under conditions where no other mice are present.

[13] = Bioavailability of co-administered peptide (salmon calcitonin) on nasal administration; type: in vivo; conditions: rhesus monkey
Procedure: Additionally, the compounds of the invention when administered, e.g. at a dose of from 0.01 to 10 mg/kg with a therapeutically effective dosage of another compound, e.g. a peptide, such as salmon calcitonin increases the absorption thereof.

[14] = 0.1 mg/kg p.o., 2 hours before the encounter

In the case of `CC(NC(C)(C)C)C(=O)c1cccc(Cl)c1` (stereo not shown) [bupropion], the “increase in mean frequency of social interactions” value ([1]; 2.5 mg/kg, competitive feeding experiment study c)) is reported as 179 per cent, the approach-oriented social behaviours [2] is reported as “increase approach-oriented social behaviours” and the “effect on promoting social interaction under stress related conditions” value [2] is reported as “pronounced effect”.
For `O=C1CC2(CCCC2)CC(=O)N1CCCCN1CCN(c2ncccn2)CC1` [buspirone], the “incidence of SAP's” value [3] is given as “reduce the incidence of SAP's”.
In the case of `CN1[C@@H]2CC[C@H]1C[C@@H](OC(=O)c1c[nH]c3ccccc13)C2` [compound E, Indol-3-yl carboxylic acid endo-8-methyl-8-aza-bicyclo-[3.2.1]oct-3-yl ester], the “frequency of social inter-action” value ([4]; increased from ca 60) is listed as roughly 80, the “duration of social inter-action” value ([4]; increased from ca 90) is listed as roughly 120 s and the “antagonistic action against 5-HT3 receptors” value (5-HT3 receptors [5]) is listed as “antagonistic action”. The “increase in mean frequency of social interactions” value ([1]; 0.01 mg/kg, competitive feeding experiment study c)) was 54 per cent, the “increase in duration of feeding” value [1, 14] was 55 per cent and the “increase in duration of social interactions relative to controls” value [1, 14] was 321 per cent. The “increase in frequency of feeding” value [1, 14] was 4 per cent, the “increase in frequency of social interactions relative to controls” value [1, 14] was 54% and the “antagonistic action against 5-HT3 receptors” value (5-HT3 receptors [6]) was “antagonistic action”. For the same compound, the concentration at 10 min [7] was 200 ng/mL, the “effect on promoting social interaction under stress related conditions” value [2] was “pronounced effect” and the NOAEL at 4368 h [8] was 5 to 20 mg/kg/day. For the same compound, the “antagonistic action against 5-HT3 receptors” value (5-HT3 receptors [9]) was “antagonistic action”, the “well tolerated single dose without relevant side effects” value (healthy human volunteers) was “up to 150 mg” and the “corticosterone profile compared with diazepam” value (plasma corticosterone) was “analogous to that observed with diazepam”. The “promotion of 8 elements of approach oriented social activities” value ([10]; 1 microgram/kg i.p., 45 minutes before the encounter, 8 elements) was “about 40 per cent”, the escape behaviour [10] was “reduced escape behaviour” and the NOAEL at 4368 h [11] was 16 to 45 mg/kg/day. The “effect on SAP at higher doses” value [12] was “the effect was less”.
With `Cc1nccn1CC1CCc2c(c3ccccc3n2C)C1=O` (stereo not shown) [compound H, 1,2,3,9-tetrahydro-9-methyl-3-[(2-methyl-1H-imidazol-1-yl)methyl]-4H-carbazol-4-one] the “promotion of 3 elements of approach-oriented social activities” value ([10]; 1 microgram/kg i.p., 45 minutes before the encounter, 3 elements) was “about 40 per cent”, the cage exploratory behaviour ([10]; 1 microgram/kg i.p., indicative of a stimulant effect) was “increase cage exploratory behaviour” and the escape behaviour [10] was “effect on escape behaviour was less”.
For `CN1C(=O)CN=C(c2ccccc2)c2cc(Cl)ccc21` [diazepam], the ambivalent behaviour ([2]; reversed lighting, darkphase, stress-situations) was “reduce the ambivalent behaviour” and the “social behaviour / approach-oriented behaviour in stress-situations” value ([2]; reversed lighting, darkphase, stress-situations normally inhibitory to social responses) was “can increase social behaviour”.
In the case of `CN(C)CCCN1c2ccccc2CCc2ccccc21` [impramine], the approach-oriented social behaviours [2] is reported as “increase approach-oriented social behaviours”.
In the case of salmon calcitonin, the “bioavailability of salmon calcitonin (AUC up to 2 hours), with compound E” value ([13]; salmon calcitonin 100 IU + compound E 15 mg, half to each nostril) is reported as 1.632 m IU/ml/hr/plasma and the “bioavailability of salmon calcitonin (AUC up to 2 hours), before increase by compound E” value ([13]; salmon calcitonin 100 IU nasal, without compound E) is reported as 0.08 mIU/ml/hr.
